Experimental data: a melting point compilation (Tetko et al.; mined from patent text by program, amines drawn as free bases though some values may be those of a salt)

Compound	melting point [°C]
CCOC(=O)/C(=N\OC1CCCC1)c1csc(N)n1	136 to 138
Cc1c(C)c(-c2cccc(CO)c2)c(C)c(C)c1OCCCS(C)(=O)=O	132 to 134
CC(C)(C)C(=O)C(=CC1CCCCC1)n1cncn1	98
CC(C(N)=O)c1ccc(Oc2ccc(F)cc2F)cc1 (stereo unspecified)	107 to 110
CC(C)n1c(/C=C/C2CC(O)CC(=O)O2)c(-c2ccc(F)cc2)c2ccccc2c1=O (stereo unspecified)	151 to 154
Cc1ccc2c(c1)C(CCCCN1CCN(c3ccc(Cl)cc3)CC1)C(=O)N2 (stereo unspecified)	159 to 161
c1ccc(C2CCNC3=NCCN32)cc1 (stereo unspecified)	146
COC(=O)C12Cc3cc(Cl)ccc3C1=NN(C(=O)N(C)c1ccc(OC(F)(F)F)cc1)CO2 (stereo unspecified)	130 to 131
CNc1ccc2n[nH]c(=O)n2n1	> 348
Cn1c(=O)oc2cc3c(cc21)OCC31C(=O)Nc2ccccc21 (stereo unspecified)	> 250
CCn1cc(C(=O)O)c(=O)c2cc(F)c(-c3cc(C)nc(C)c3)cc21	> 310
O=c1nc(-c2ccccc2O)oc2ccccc12	206 to 208
CCCc1n[nH]c(=O)c2c(C)ncn12	168 to 170
COC(=O)c1ccc(-c2ccc(OC)c(OC3CCCC3)c2)cc1	128 to 131
COC(=O)c1ncc(C(=O)O)cc1Cl	182 to 184
Cn1cc(Br)cc(Nc2ccc(OC3CN(C(=O)OC(C)(C)C)C3)cn2)c1=O	120 to 121
CCOC(=O)c1cnc2ccc3nc(Cl)sc3c2c1O	> 300
CCc1cccc(CC(=O)O)c1OCCCc1cn(-c2ccc(Br)cn2)nc1C(C)C	152
CNC(=S)NS(=O)(=O)c1cc(CCNC(=O)c2cc(Cl)ccc2OC)ccc1-c1ccccn1	85 to 86
O=S(=O)(Nc1ccccc1/C=C/c1ccncc1)c1ccc(Cl)cc1	218 to 220
COc1ccc(CCN2CCC(Nc3nc4cncnc4n3Cc3ccccn3)CC2)cc1	144
COc1ccc(OC)c(CNC(=O)n2cc(F)c(=O)[nH]c2=O)c1	185

Compound	melting point [°C]
O=C(NNS(=O)(=O)c1ccccc1)c1ccc(NCc2ccccc2)cc1	214 to 215
C[C@@H](N1CCN(c2ccc(OC(F)(F)C(F)F)cc2)C1=O)[C@@]1(c2ccccc2F)CO1	148 to 149
Cc1c(NC(=O)CC(C)(C)C)c(C)c2c(c1-c1ccccc1)OCC2c1ccc(C(C)C)cc1 (stereo unspecified)	178 to 182
Cc1cc(=O)n(-c2ccc(Cl)cc2F)c(=O)[nH]1	> 220
COc1ccc2c(C(C)C(=O)O)cnc(Cl)c2c1 (stereo unspecified)	167 to 168
CCOC(=O)C1=C(C)N=C(N)C(Cc2ccccc2)(C(=O)OCC)C1c1cccc([N+](=O)[O-])c1 (stereo unspecified)	208
Cc1cc(F)ccc1-c1nc(NCC(F)(F)F)nc2c1ccc(=O)n2-c1c(F)cccc1F	195 to 196
COc1ccc(-c2nc3cnccc3[nH]2)cc1S(C)=O (stereo unspecified)	227 to 229
Cc1ccc2oc(S(=O)(=O)c3ccc(=O)[nH]n3)c(C)c2c1	246 to 247
COc1nc(C)nc(NC(=O)NS(=O)(=O)c2csc3ccccc23)n1	187 to 188
COc1ccc2nc3c(cc2c1)c(Cl)nn3C	138 to 139
Cn1cc(C(=O)c2ccc3ccccc3c2)cc1C(=O)CCl	148 to 151
O=c1[nH]c(=O)n(C2CC(O)C(CO)O2)cc1C=CBr (stereo unspecified)	165 to 166
CC(=O)Nc1c(SC(F)(F)F)c(C#N)nn1-c1c(Cl)cc(C(F)(F)F)cc1Cl	217 to 218
O=C(NO)[C@H](CNS(=O)(=O)c1ccc(OCCc2ccccc2)cc1)N1CCOCC1	77
Nc1ccc2c(c1)ncn2-c1ccccc1	272 to 274
O=C(NNC(=S)NNC(=O)c1ccccc1)c1ccccc1	177 to 179
O=c1c2c(c1=O)N(CCP(=O)(O)O)CC(O)CN2 (stereo unspecified)	215 to 218
CCOC(=O)c1cc(OC(C)=O)c2c(c1)c1ccccc1n2C	123 to 125
CCOC(=O)c1nc(N)sc1-c1nc2ccccn2c1C	180 to 182
Brc1cccc(C2Cc3cnc(Nc4ccc(CCN5CCN(c6ccccc6)CC5)cc4)nc3-c3ccccc32)c1 (stereo unspecified)	113 to 115
CNC(=O)Oc1c(OC)cc(OC)c2ccccc12	131 to 133

The remaining lines, values ahead:

melting point [°C]	Compound
114 to 118	O=C1c2cccc(O)c2CN1C1CCN(CCC(c2ccccc2)c2ccccc2)CC1
208 to 209	CCCSc1sc(C(N)=O)c2c1-c1nn(C)cc1CC2
92.2 to 98.4	CCOC(=O)C1=Cc2cc(S(C)=O)ccc2OC1C(F)(F)F (stereo unspecified)
202	O=C(Nc1ccc2ccc(Cl)nc2n1)c1cccc(F)c1
288 to 290	Cn1ncc2c(c1=O)S(=O)(=O)CCNC2Cc1ccccc1 (stereo unspecified)
96 to 98	Cc1c(C)c2c(c(C)c1OCc1ccncc1)C(c1ccc(C(C)C)cc1)C1(CCN(C)CC1)O2 (stereo unspecified)
218	CCOC(=O)C1=C(O)c2cc(OC)c(OC)cc2NC(=O)C1
156 to 158	CC(C)(C)CCNc1cccc(-c2ccnc3c(C(=O)c4cccs4)cnn23)c1
190 to 193	CS(=O)(=O)c1ccc(C(=O)Nc2ccc(Cl)c(-c3ccc(C(=O)NO)cn3)c2)c(Cl)c1
255 to 257	CCOC(=O)c1cn(NC=O)c2cc3c(cc2c1=O)OCO3
211 to 214	CC(=O)n1ccc(-c2ccc(F)cc2)c1-c1ccc(S(C)(=O)=O)cc1
200 to 207	COC(=O)COc1ccc2c(c1)S(=O)(=O)C=C(c1c(O)c3cc(F)ccc3n(Cc3ccc(F)cc3)c1=O)N2
350	O=C1CCc2ncc3cc(Cl)c(Cl)cc3c2N1
215 to 217	O=C(NC1CCN(Cc2ccccc2)CC1)c1c[nH]c2ccc(F)cc12
177 to 182	CCOC(=O)C1=C(CS(=O)(=O)c2ccccc2)Nc2ccnc(OC(C)C)c2C1c1ccccc1C(F)(F)F (stereo unspecified)
174 to 175	O=C1CC[C@@H]([N+](=O)[O-])[C@H](c2ccccc2)N1 (relative stereo)
181 to 183	COC(=O)CNC(=O)[C@H](CSC(=O)c1ccccc1)NC(=O)CNC(=S)CC(=O)c1ccccc1
82.5 to 83.5	CC(=O)c1ccc(-c2ccc(F)cc2F)cc1
158 to 160	Cc1ccc(-n2nc(C(F)(F)F)cc2-c2ccc(S(C)(=O)=O)cc2)cc1F

melting point [°C]	Compound
154 to 157	O=C(O)COc1cc(F)ccc1C(=S)NCc1ccc(Br)cc1F
190 to 192	O=C(O)c1ccc(S(=O)(=O)CCO)c([N+](=O)[O-])c1
125 to 127	BrCc1ccc(C=Cc2ccccc2)cc1
60 to 75	Nc1cccc(-c2ccc(CCNCc3cccc(Cl)c3)c3ccccc23)n1
51	CCCCCCCC(=O)Oc1ccc(C(=O)O)cc1
210	Cc1cc(Cc2ccc(NC(=O)NCCO)cc2)n(C)c1C(=O)c1ccc(Cl)cc1
181 to 182	CC(C)c1cc(C(C)C)c2ncn(/C=C/C(=O)O)c(=O)c2c1
164	CN(C)CCCSc1ccc2ccc(N)nc2n1
270 to 273	Cc1nc2sccn2c1C1=NNC(=O)CN1
235 to 237	C#Cc1ccc(-c2ccc(-c3ccc(C#C)cc3)n2-c2ccc(C)cc2)cc1
125 to 128	COc1cccc(C=CC2=NN(C(C)=O)C(C)Cc3cc4c(cc32)OCO4)c1OC (stereo unspecified)
64 to 66	N#Cc1c(-c2ccc(OCc3ccccc3)cc2)[nH]c2ccc(OCc3ccccc3)cc12
138 to 140	C=C(C)C(=O)OCCNc1nc(Cl)nc(Cl)n1
201	Oc1ncnc2c1nc(CC1CCN(CC3COc4ccccc4O3)CC1)n2Cc1ccc(F)cc1 (stereo unspecified)
137 to 138	CC(C)CN1CCc2ccc(C(=O)CCC(=O)N3CCC(c4ccc(Cl)cc4)CC3)cc2CC1
153 to 169	Cc1c2n(c3ccccc13)C(=O)C(C(O)c1ncn(C(c3ccccc3)(c3ccccc3)c3ccccc3)c1C)CC2 (stereo unspecified)
85 to 87	CCCc1cc2ccc(CC(=O)OC)cc2n1C(C)=O
126 to 128	O=C(CCc1ccccc1)c1ccc2n1Cc1ccccc1N(C(=O)COc1ccc(Cl)cc1)C2
69 to 71	OCc1c[nH]c(Sc2ccccc2)c1

melting point [°C]	Compound
95 to 98	c1cnc(-c2noc(C3CC3)n2)cn1
163 to 165	COc1c(C)cnc(Cn2cc(C#CCC(C)(C)O)c3c(Cl)nc(N)nc32)c1C
64.5 to 66	Nc1cc(S)c(Cl)cc1F
224 to 226	O=C1c2cccc3c(N4CCCC4)c(F)cc(c23)C(=O)N1O
183 to 185	NS(=O)(=O)c1nc2ccc(OCC(O)CO)cc2s1 (stereo unspecified)
107 to 108	CCCCOc1ccc(F)cc1OCCN1C(=O)c2ccccc2C1=O
143 to 146	O=C(Cc1ccccn1)N1CCN(C(=O)Oc2ccc(Oc3ccc(C(F)(F)F)cn3)cc2)CC1
222 to 223	CC(=O)CNC(=O)c1cc2c(nc(C)n2C)c2c1CCC1(Cc3ccccc3C1)N2
106 to 110	Cc1ccccc1C(=O)NC1CCC(=O)N2CCCC(C(=O)NC3CC(=O)OC3OCc3ccccc3)N2C1=O (stereo unspecified)
82 to 87	CC(=O)OCCSCn1cnc2c(Cl)ncnc21
99 to 101	CCOC(OCC)C(N)c1nnnn1C (stereo unspecified)
139	CCOC(=O)C1=C(CC)NN=C(C(=O)OC)C1c1cccc([N+](=O)[O-])c1 (stereo unspecified)
224 to 230	O=C1c2ccccc2S(=O)(=O)N1C1CCN(CC2COc3ccccc3O2)CC1 (stereo unspecified)
191 to 192	N[C@H](CCC(=O)N1[C@H](C(=O)O)C[C@@H]2CCCC[C@@H]21)C(=O)O
194 to 196	COc1ccc2c(c1)c(CC(=O)NN)c(C)n2Cc1c(Cl)cccc1Cl
107 to 109	CC1Oc2ccc(O)cc2C=C1C=O (stereo unspecified)
92 to 94	CCCCCCCCCCCCCCCCCCOc1cc(OCCCCCCc2cccc(O)c2O)cc(C(=O)O)c1
74 to 75	COc1ccc(-c2cccc3ccsc23)cc1
217 to 220	CC1(C)C(=NO)C(c2ccccc2)=C1c1ccc(S(C)(=O)=O)cc1
